Target: not listed separately
Experiment: Inhibition of hypoxia-induced HIF-1 transcriptional activity by luciferase reporter assay
Conditions: not given

IC50	Compound
> 30 µM	Cn1nc(-c2ncc(CO)o2)c2ccccc21
7.7 µM	CNCc1ccc(-c2nn(C)c3ccccc23)o1
8.5 µM	CN(C)Cc1ccc(-c2nn(C)c3ccccc23)o1
> 30 µM	OCC1CN=C(c2nn(Cc3ccccc3)c3ccccc23)O1 (stereo not drawn)
1.3 µM	O=S(=O)(c1ccccc1)n1nc(-c2ccc(CO)o2)c2ccccc21
> 30 µM	[N-]=[N+]=NCc1ccc(-c2nn(Cc3ccccc3)c3ccccc23)o1
16.9 µM	CC(=O)OCc1ccc(-c2nn(C)c3ccccc23)o1
> 30 µM	Cn1nc(-c2nc(CO)co2)c2ccccc21
13.4 µM	CC(=O)NCc1ccc(-c2nn(C)c3ccccc23)o1
0.74 µM	CC(C)C(=O)OCc1ccc(-c2nn(Cc3ccccc3)c3ccccc23)o1
2 µM	Cn1nc(-c2ccc(CN3CCCCC3)o2)c2ccccc21
0.9 µM	COC(=O)c1ccc(-c2nn(Cc3ccccc3)c3ccccc23)o1
> 30 µM	Cn1nc(-c2ccc(CN)o2)c2ccccc21
> 30 µM	Cn1nc(-c2cc(CO)no2)c2ccccc21
1.2 µM	OCc1ccc(-c2nn(Cc3ccccc3)c3ccccc23)o1
5 µM	OCc1ccc(-c2[nH]nc3ccccc23)o1
> 30 µM	OCc1coc(-c2nn(Cc3ccccc3)c3ccccc23)n1
1.9 µM	Cn1nc(-c2ccc(CN3CCOCC3)o2)c2ccccc21
0.89 µM	CC(C)(C)C(=O)OCc1ccc(-c2nn(Cc3ccccc3)c3ccccc23)o1
23.9 µM	OCc1cc(-c2nn(Cc3ccccc3)c3ccccc23)on1
11.9 µM	NC(=O)c1ccc(-c2nn(Cc3ccccc3)c3ccccc23)o1
> 30 µM	Cn1nc(-c2ncc(CO)s2)c2ccccc21
> 30 µM	OCc1cnc(-c2nn(Cc3ccccc3)c3ccccc23)o1
8.9 µM	Cn1nc(-c2ccc(CO)o2)c2ccccc21
> 30 µM	OCc1cnc(-c2nn(Cc3ccccc3)c3ccccc23)s1
2.3 µM	CC(=O)OCc1ccc(-c2nn(Cc3ccccc3)c3ccccc23)o1
> 30 µM	Cn1nc(-c2ccc(CN=[N+]=[N-])o2)c2ccccc21

Target: Hypoxia-inducible factor 1-alpha (Homo sapiens) (UniProt Q16665)
Experiment: Inhibition of hypoxia-induced HIF1alpha protein reduction in human Hep3B cells by Western blot analysis
Format: cell-based
Conditions: Hep 3B2

Chain of Hypoxia-inducible factor 1-alpha (Homo sapiens) (Q16665 whole entry, looked up): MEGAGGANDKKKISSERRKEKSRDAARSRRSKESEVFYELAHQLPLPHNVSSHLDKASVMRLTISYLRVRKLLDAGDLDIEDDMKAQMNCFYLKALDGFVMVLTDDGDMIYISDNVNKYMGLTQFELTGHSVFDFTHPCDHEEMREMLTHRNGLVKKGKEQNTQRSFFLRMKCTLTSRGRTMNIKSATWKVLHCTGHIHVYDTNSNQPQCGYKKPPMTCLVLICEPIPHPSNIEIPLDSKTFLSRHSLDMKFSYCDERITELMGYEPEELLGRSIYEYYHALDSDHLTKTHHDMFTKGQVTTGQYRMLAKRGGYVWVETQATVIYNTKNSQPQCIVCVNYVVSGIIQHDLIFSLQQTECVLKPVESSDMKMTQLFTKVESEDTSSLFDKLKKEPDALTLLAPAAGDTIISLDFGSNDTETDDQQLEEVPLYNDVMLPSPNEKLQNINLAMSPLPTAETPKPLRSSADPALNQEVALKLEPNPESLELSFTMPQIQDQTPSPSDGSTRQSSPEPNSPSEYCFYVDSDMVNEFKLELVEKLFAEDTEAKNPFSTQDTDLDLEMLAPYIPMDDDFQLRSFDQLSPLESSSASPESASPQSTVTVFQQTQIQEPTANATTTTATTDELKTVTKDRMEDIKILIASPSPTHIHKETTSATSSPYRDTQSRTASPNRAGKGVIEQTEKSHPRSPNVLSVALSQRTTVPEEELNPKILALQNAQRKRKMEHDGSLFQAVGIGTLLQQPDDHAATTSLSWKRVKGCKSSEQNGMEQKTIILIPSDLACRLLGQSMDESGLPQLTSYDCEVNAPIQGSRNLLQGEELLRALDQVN

inhibition	Compound
Dose-dependent effect	CC(C)C(=O)OCc1ccc(-c2nn(Cc3ccccc3)c3ccccc23)o1

— ChEMBL document CHEMBL1926629, “Design, synthesis and insight into the structure-activity relationship of 1,3-disubstituted indazoles as novel HIF-1 inhibitors” (Bioorg Med Chem Lett, 2011)
